Assay results reported in PMC3961306, “Comparison of the Cancer Gene Targeting and Biochemical Selectivities of All Targeted Kinase Inhibitors Approved for Clinical Use” (PLoS ONE, 2014).

Tests used:
Assay in all cases: Kinase profiling in a biochemical assay panel (mobility shift assays and ELISA), %-inhibition at 1 μM; selectivity entropy
[1] = molecular target: panel of more than 300 wild-type and mutant kinases (313 kinase panel) (Homo sapiens, UniProt O75116); conditions: kinase ROCK2; 1 μM
[2] = molecular target: panel of more than 300 wild-type and mutant kinases (313 kinase panel) (Homo sapiens, UniProt P09769); conditions: kinase FGR; compound at 1 μM
[3] = molecular target: panel of more than 300 wild-type and mutant kinases (313 kinase panel) (Homo sapiens, UniProt P36894); conditions: kinase BMPR1A; 1 μM compound
[4] = molecular target: panel of more than 300 wild-type and mutant kinases (313 kinase panel) (Homo sapiens, UniProt P51451); conditions: kinase BLK; 1 μM compound
Chain of panel of more than 300 wild-type and mutant kinases (313 kinase panel) (Homo sapiens, UniProt P51451) (P51451 whole entry, change not shown): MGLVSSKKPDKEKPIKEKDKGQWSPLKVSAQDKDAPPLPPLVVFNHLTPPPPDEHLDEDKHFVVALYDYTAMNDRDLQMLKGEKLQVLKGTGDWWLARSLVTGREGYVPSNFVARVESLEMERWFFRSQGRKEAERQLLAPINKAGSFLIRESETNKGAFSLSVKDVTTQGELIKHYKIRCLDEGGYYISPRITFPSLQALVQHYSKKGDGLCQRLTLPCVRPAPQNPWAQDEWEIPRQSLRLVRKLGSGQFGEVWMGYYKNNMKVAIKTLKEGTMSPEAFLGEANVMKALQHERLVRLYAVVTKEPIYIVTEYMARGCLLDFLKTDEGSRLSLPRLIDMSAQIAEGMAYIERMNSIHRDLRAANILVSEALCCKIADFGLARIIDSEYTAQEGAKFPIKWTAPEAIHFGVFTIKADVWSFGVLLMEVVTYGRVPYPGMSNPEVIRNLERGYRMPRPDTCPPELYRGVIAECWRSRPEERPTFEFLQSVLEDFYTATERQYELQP

[5] = molecular target: T1, panel of more than 300 wild-type and mutant kinases (313 kinase panel) (Homo sapiens, UniProt Q13163); conditions: kinase MAP2K5; compound at 1 μM
T1 sequence (Q13163 1-448): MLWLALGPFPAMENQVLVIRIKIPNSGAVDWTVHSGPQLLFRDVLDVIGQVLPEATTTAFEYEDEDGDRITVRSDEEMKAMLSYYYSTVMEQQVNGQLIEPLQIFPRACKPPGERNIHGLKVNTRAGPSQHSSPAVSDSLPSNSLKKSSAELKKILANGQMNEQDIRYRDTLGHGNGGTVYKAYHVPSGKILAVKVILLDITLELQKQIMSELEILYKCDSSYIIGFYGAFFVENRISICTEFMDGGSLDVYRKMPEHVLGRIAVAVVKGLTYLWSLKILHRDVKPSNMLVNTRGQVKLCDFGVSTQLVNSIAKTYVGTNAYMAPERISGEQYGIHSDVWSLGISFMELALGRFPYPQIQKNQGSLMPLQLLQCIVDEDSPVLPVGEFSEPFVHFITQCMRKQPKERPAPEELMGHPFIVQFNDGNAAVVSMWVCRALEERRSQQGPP

[6] = molecular target: panel of more than 300 wild-type and mutant kinases (313 kinase panel) (Homo sapiens, UniProt P50750); conditions: kinase CDK9/CycT1; 1 μM compound
[7] = molecular target: panel of more than 300 wild-type and mutant kinases (313 kinase panel) (Homo sapiens, UniProt P54756); conditions: kinase EPHA5; compound at 1 μM
[8] = molecular target: panel of more than 300 wild-type and mutant kinases (313 kinase panel) (Homo sapiens, UniProt P80192); conditions: kinase MLK1; 1 μM
Chain of panel of more than 300 wild-type and mutant kinases (313 kinase panel) (Homo sapiens, UniProt P80192) (P80192 whole entry, change not shown): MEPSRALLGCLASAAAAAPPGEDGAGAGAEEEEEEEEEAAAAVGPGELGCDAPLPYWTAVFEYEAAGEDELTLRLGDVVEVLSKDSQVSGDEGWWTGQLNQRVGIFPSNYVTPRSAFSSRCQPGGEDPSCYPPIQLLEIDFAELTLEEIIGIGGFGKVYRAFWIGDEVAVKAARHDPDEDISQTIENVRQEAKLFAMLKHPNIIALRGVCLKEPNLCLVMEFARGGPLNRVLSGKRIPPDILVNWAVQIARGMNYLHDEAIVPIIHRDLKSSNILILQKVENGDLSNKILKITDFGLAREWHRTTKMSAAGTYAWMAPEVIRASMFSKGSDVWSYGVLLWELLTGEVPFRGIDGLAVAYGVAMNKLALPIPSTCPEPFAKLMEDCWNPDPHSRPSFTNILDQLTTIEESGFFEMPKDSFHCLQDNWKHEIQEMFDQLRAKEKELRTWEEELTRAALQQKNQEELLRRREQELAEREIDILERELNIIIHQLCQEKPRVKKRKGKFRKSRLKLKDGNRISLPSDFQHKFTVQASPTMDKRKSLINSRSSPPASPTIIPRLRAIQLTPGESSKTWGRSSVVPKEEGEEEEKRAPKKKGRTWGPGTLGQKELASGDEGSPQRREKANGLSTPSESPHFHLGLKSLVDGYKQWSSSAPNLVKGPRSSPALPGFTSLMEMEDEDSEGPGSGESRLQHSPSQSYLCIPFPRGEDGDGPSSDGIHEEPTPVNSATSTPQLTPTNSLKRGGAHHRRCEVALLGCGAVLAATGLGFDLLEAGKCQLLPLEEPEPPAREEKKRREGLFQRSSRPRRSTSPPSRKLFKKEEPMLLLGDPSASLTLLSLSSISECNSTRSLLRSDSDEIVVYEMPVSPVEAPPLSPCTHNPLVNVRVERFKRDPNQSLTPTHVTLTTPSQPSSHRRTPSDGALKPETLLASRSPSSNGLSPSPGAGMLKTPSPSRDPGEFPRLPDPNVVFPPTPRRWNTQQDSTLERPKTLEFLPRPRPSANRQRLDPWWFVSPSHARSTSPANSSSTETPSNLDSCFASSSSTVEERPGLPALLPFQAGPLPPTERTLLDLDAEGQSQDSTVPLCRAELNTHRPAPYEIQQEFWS

[9] = molecular target: panel of more than 300 wild-type and mutant kinases (313 kinase panel) (Homo sapiens, UniProt Q00526)
Chain of panel of more than 300 wild-type and mutant kinases (313 kinase panel) (Homo sapiens, UniProt Q00526) (Q00526 whole entry, change not shown): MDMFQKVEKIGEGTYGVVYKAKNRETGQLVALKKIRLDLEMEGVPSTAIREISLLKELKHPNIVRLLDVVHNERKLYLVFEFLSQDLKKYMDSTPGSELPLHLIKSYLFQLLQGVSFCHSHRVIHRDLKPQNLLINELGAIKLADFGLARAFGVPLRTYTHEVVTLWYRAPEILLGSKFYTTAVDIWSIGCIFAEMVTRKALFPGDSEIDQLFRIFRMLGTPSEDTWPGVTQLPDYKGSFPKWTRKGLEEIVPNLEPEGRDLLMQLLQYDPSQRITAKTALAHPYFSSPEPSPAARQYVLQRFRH

[10] = molecular target: T2, panel of more than 300 wild-type and mutant kinases (313 kinase panel) (Homo sapiens, UniProt Q06418); conditions: kinase TYRO3; compound at 1 μM
T2 sequence (Q06418 41-890): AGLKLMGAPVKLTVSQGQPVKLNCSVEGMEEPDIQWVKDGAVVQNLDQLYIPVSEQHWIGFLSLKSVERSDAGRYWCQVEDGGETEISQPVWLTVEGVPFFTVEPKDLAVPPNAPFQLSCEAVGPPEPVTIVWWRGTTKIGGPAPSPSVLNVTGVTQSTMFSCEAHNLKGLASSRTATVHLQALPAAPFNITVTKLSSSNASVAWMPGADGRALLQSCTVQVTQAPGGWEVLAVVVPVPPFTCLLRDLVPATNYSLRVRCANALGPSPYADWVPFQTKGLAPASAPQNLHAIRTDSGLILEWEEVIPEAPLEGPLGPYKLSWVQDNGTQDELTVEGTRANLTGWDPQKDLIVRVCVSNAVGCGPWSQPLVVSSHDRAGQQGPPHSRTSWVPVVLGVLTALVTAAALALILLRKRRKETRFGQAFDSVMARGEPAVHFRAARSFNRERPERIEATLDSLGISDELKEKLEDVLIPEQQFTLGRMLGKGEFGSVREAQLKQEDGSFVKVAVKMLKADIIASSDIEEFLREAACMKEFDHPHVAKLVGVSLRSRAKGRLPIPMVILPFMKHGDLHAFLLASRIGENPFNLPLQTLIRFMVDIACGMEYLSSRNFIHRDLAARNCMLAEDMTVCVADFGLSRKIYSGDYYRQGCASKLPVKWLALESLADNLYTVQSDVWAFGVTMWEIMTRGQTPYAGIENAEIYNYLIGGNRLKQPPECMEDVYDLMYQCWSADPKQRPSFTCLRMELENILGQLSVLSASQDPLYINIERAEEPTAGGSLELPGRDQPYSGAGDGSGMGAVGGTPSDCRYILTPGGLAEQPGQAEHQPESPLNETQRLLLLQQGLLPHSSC

[11] = kinase CDK3/CycE1, 1 μM compound

Compound	%-inhibition of ROCK2 [1] [%]	%-inhibition of FGR [2] [%]	%-inhibition, BMPR1A [3] [%]	%-inhibition, BLK [4] [%]	%-inhibition of MAP2K5 [5] [%]	%-inhibition, CDK9/CycT1 [6] [%]	%-inhibition of EPHA5 [7] [%]	%-inhibition of MLK1 [8] [%]	%-inhibition, CDK3/CycE1 [9, 11] [%]	%-inhibition of TYRO3 [10] [%]	%-inhibition, CDK3/CycE1 ([9]; 1 µM) [%]
CC(C)(C)c1nc(-c2cccc(NS(=O)(=O)c3c(F)cccc3F)c2F)c(-c2ccnc(N)n2)s1 [dabrafenib]	14	82	17	80	70	–	–	–	–	–	–
CCCS(=O)(=O)Nc1ccc(F)c(C(=O)c2c[nH]c3ncc(-c4ccc(Cl)cc4)cc23)c1F [vemurafenib]	-0.177	93	9	52	32	1.33	14	10	-4.34	3.16	–
Cc1nc(Nc2ncc(C(=O)Nc3c(C)cccc3Cl)s2)cc(N2CCN(CCO)CC2)n1 [dasatinib]	–	–	–	103	–	-0.25	–	–	2.27	–	–
C[C@@H](Oc1cc(-c2cnn(C3CCNCC3)c2)cnc1N)c1c(Cl)ccc(F)c1Cl [crizotinib]	4.25	70	41	–	24	5	71	2.82	-5.68	–	–
Cc1ccc(C(=O)Nc2ccc(CN3CCN(C)CC3)c(C(F)(F)F)c2)cc1C#Cc1cnc2cccnn12 [ponatinib]	63	101	6.48	97	61	16	–	29	20	45	–
O=S(=O)(c1cccc2cnccc12)N1CCCNCC1 [fasudil]	–	-4.71	-10	-2.48	13	26	-3.43	3.31	24	-1.23	–
COc1cc(Nc2c(C#N)cnc3cc(OCCCN4CCN(C)CC4)c(OC)cc23)c(Cl)cc1Cl [bosutinib]	28	92	1.74	84	63	-4.22	–	93	–	–	1
CCN(CC)CCNC(=O)c1c(C)[nH]c(/C=C2\C(=O)Nc3ccc(F)cc32)c1C [sunitinib]	–	–	–	96	–	–	–	–	–	98	–
COc1cc2c(Nc3ccc(Br)cc3F)ncnc2cc1OCC1CCN(C)CC1 [vandetanib]	-0.708	86	46	89	43	–	89	42	-13	94	–
COc1cc2nccc(Oc3ccc(NC(=O)C4(C(=O)Nc5ccc(F)cc5)CC4)cc3)c2cc1OC [cabozantinib]	15	94	2.27	100	17	-5.37	99	20	-2.84	–	–
